Measured values: ChEMBL document CHEMBL1147850, “Conversion of some 2(3H)-furanones bearing a pyrazolyl group into other heterocyclic systems with a study of their antiviral activity” (2007)

Key:
Format in all cases: functional
Parameters in all cases: scale not given: the % may be the effect or the level left
Hepatovirus A [1] = assay: Antiviral activity against HAV in Vero cells assessed as plaque infectivity reduction at 10 ug/ml
Human alphaherpesvirus 1 [2] = assay: Antiviral activity against HSV1 in Vero cells assessed as plaque infectivity reduction at 10 ug/ml
Human alphaherpesvirus 1 [3] = assay: Antiviral activity against HSV1 in Vero cells assessed as plaque infectivity reduction at 20 ug/ml
Hepatovirus A [4] = assay: Antiviral activity against HAV in Vero cells assessed as plaque infectivity reduction at 20 ug/ml

Structure (SMILES) | Activity (Hepatovirus A [1]) | Activity (Human alphaherpesvirus 1 [2]) | Activity (Human alphaherpesvirus 1 [3]) | Activity (Hepatovirus A [4])
O=C1OC(c2ccc(Cl)cc2)=C/C1=C\c1cn(-c2ccccc2)nc1-c1ccccc1 | 40% | 0% | 0% | 60%
COc1ccc(C2=C/C(=C\c3cn(-c4ccccc4)nc3-c3ccccc3)C(=O)N2Cc2ccccc2)cc1 | 0% | 23% | 45% | 0%
NNC(=O)/C(=C/c1cn(-c2ccccc2)nc1-c1ccccc1)CC(=O)c1ccc(Cl)cc1 | 20% | 26% | 42.8% | 30%
O=C(NNC(=O)c1ccccc1)/C(=C/c1cn(-c2ccccc2)nc1-c1ccccc1)CC(=O)c1ccc(Cl)cc1 | 30% | 10% | 38% | 60%
NC(=O)NNC(=O)/C(=C/c1cn(-c2ccccc2)nc1-c1ccccc1)CC(=O)c1ccc(Cl)cc1 | 0% | 42.8% | 52% | 20%
O=C(C/C(=C\c1cn(-c2ccccc2)nc1-c1ccccc1)c1n[nH]c(=S)o1)c1ccc(Cl)cc1 | 0% | 14% | 45% | 0%
O=C(NCc1ccccc1)/C(=C/c1cn(-c2ccccc2)nc1-c1ccccc1)CC(=O)c1ccc(Cl)cc1 | 40% | 4% | 23.8% | 60%
O=C(C/C(=C\c1cn(-c2ccccc2)nc1-c1ccccc1)c1n[nH]c(=O)[nH]1)c1ccc(Cl)cc1 | 0% | 0% | 14% | 10%
COc1ccc(-c2cc(Cc3cn(-c4ccccc4)nc3-c3ccccc3)c(=O)[nH]n2)cc1 | 20% | 21% | 47% | 50%
O=C(C/C(=C\c1cn(-c2ccccc2)nc1-c1ccccc1)c1n[nH]c(=S)[nH]1)c1ccc(Cl)cc1 | 40% | 0% | 38% | 50%
